biological target: T1, CCR(9) (Homo sapiens, UniProt P51686); assay: serum chemotaxis (migration) assay, MOLT-4 cells in human serum, TECK; assay type: cell-based; settings: read-out: A2
T1 construct: CCR(9)-expressing cells such as T cell line MOLT-4 cells; host or cells: MOLT-4 cells
T1 sequence (P51686 1-369): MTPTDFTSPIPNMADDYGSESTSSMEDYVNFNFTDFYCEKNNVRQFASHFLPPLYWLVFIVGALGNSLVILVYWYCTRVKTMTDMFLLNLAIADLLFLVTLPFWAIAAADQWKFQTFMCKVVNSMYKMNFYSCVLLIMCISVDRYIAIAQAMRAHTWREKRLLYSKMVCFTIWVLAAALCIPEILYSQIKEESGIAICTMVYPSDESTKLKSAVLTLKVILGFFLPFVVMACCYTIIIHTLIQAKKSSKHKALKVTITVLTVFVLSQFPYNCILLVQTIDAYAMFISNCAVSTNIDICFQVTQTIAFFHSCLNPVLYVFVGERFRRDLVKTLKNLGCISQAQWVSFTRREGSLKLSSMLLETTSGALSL
Experimental: In vitro cell chemotaxis assays can be performed (but are not limited to this format) using the 96-well microchamber (called ChemoTX™). The ChemoTX™ system is well known to those skilled in the art as a type of chemotactic/cell migration instrument. In this assay, CCR(9)-expressing cells (such as MOLT-4) are first incubated with a compound of interest, such as a possible CCR(9) antagonist at increasing concentrations. Typically, fifty thousand cells per well are used, but the amount can range from 10^3-10^6 cells per well. The chemokine ligand (for example, CCR(9) ligand TECK, typically at 50 nM (but can range from 5-100 nM)), is placed at the lower chamber and the migration apparatus is assembled. Twenty microliters of test compound-treated cells are then placed onto the membrane. Migration is allowed to take place at 37° C. for a period of time, typically 2.5 hours for CCR(9). At the end of the incubation, the number of cells that migrated across the membrane into the lower chamber is then quantified. The efficacy of a compound as an inhibitor of chemokine-mediated cell migration can be calculated as an IC50 (the concentration needed to reduce cell migration by 50%) or IC90 (for 90% inhibition).
MOLT-4 cells were obtained from the American Type Culture Collection (Manassas, VA) and cultured in RPMI tissue culture medium supplemented with 10% fetal calf serum (FCS) in a humidified 5% CO2 incubator at 37° C. Recombinant human chemokine proteins TECK was obtained from R&D Systems (Minneapolis, MN). ChemoTX® chemotaxis microchambers were purchased from Neuro Probe (Gaithersburg, MD). CyQUANT® cell proliferation kits were purchased from Molecular Probes (Eugene, Oregon). Calcium indicator dye Fluo-4 AM was purchased from Molecular Devices (Mountain View, CA).
A serum chemotaxis assay was used to determine the efficacy of potential receptor antagonists at blocking the migration mediated through chemokine receptors, such as CCR(9). This assay was performed using the ChemoTX® microchamber system with a 5-μm pore-sized polycarbonate membrane. MOLT-4 cells were collected by centrifugation at 400×g at room temperature, then suspended at 50 million/ml in human serum, containing 50 mM HEPES (final pH of 7.2). The compound being tested or an equivalent volume of its solvent (DMSO) was then added to the cell/serum mixture at a final DMSO concentration of 0.125% (v/v), and this mixture was then incubated together at 37° C. for one hour. Separately, recombinant human TECK was diluted with chemotaxis buffer (HBSS+0.1% BSA), generally spanning a range from 0.1 nM to 500 nM, after which 29 μl of diluted chemokine was placed in the lower wells of the ChemoTX® plate. The 5-μm (pore size) polycarbonate membrane was placed onto the plate, and 20 μL of the cell/compound mixture was transferred onto each well of the membrane. The plates were incubated at 37° C. for 90 minutes, after which the polycarbonate membranes were removed and 5 μl of the DNA-intercalating agent CyQUANT (Invitrogen, Carlsbad, CA) was added to the lower wells. The amount of fluorescence, corresponding to the number of migrated cells, was measured using a Spectrafluor Plus plate reader (TECAN, San Jose, CA).
The A2 values were calculated from the following equation, comparing the efficacy of the test compound with that of the DMSO-only control at equi-active chemokine levels: Log(A2)=log[drug(M)]−log [(A′/A)−1]
where A reflects the potency of the agonist in the absence of antagonist and A′ reflects the potency of the agonist in the presence of antagonist at a given concentration of drug ([drug(M)]).

IC50 [nM] | SMILES
501 to 2500 | Cc1cc(NS(=O)(=O)c2ccc(C(C)(C)C)cc2)n(-c2ccc(F)c3ncccc23)n1
501 to 2500 | Cc1cc(NS(=O)(=O)c2ccc(C(C)(C)C)cc2)n(-c2cc(N)nc3ccccc23)n1
501 to 2500 | Cc1cc(NS(=O)(=O)c2ccc(C(C)(C)C)cc2)n(-c2cnnc3ccccc23)n1
501 to 2500 | Cc1cc(NS(=O)(=O)c2ccc(C(C)(C)C)cc2)n(-c2cccc3cnccc23)n1
< 500 | Cc1cc(NS(=O)(=O)c2ccc(C(C)(C)C)cc2)n(-c2cccc3ncccc23)n1
501 to 2500 | CCOc1ccc(-n2nc(C)cc2NS(=O)(=O)c2ccc(C(C)(C)C)cc2)c2cccnc12
< 500 | Cc1cc(NS(=O)(=O)c2ccc(C(C)(C)C)cc2)n(-c2ccc(N)c3ncccc23)n1
501 to 2500 | Cc1cc(NS(=O)(=O)c2ccc(C(C)(C)C)cc2)n(-c2ccc(C#N)c3ncccc23)n1
< 500 | Cc1cc(NS(=O)(=O)c2ccc(C(C)(C)C)cc2)n(-c2cccc3nc(N)ccc23)n1
501 to 2500 | Cc1cc(NS(=O)(=O)c2ccc(C(C)(C)C)cc2)n(-c2ccnc3ccccc23)n1
501 to 2500 | Cc1cc(NS(=O)(=O)c2ccc(C(C)(C)C)cc2)n(-c2nccc3ccccc23)n1
501 to 2500 | Cc1cc(-n2nc(C)cc2NS(=O)(=O)c2ccc(C(C)(C)C)cc2)c2ccccc2n1
501 to 2500 | Cc1cc(NS(=O)(=O)c2ccc(C(C)(C)C)cc2)n(-c2ccc(Br)c3ncccc23)n1
501 to 2500 | Cc1cc(NS(=O)(=O)c2ccc(C(C)(C)C)cc2)n(-c2ccc(C)c3ncccc23)n1
501 to 2500 | Cc1cc(NS(=O)(=O)c2ccc(C(C)(C)C)cc2)n(-c2nccc3ncccc23)n1
< 500 | Cc1cc(NS(=O)(=O)c2ccc(C(C)(C)C)cc2)n(-c2ccc(Cl)c3ncccc23)n1
501 to 2500 | Cc1cc(NS(=O)(=O)c2ccc(C(C)(C)C)cc2)n(-c2ccnc3c(F)cccc23)n1
< 500 | Cc1ccc2c(-n3nc(C)cc3NS(=O)(=O)c3ccc(C(C)(C)C)cc3)cccc2n1
< 500 | COc1ccc(-n2nc(C)cc2NS(=O)(=O)c2ccc(C(C)(C)C)cc2)c2cccnc12
501 to 2500 | Cc1cc(NS(=O)(=O)c2ccc(C(C)(C)C)cc2)n(-c2cccc3c(N)nccc23)n1
501 to 2500 | Cc1cc(-n2nc(C)cc2NS(=O)(=O)c2ccc(C(C)(C)C)cc2)c2cccnc2c1
501 to 2500 | Cc1cc(NS(=O)(=O)c2ccc(C(C)(C)C)cc2)n(-c2cnc(N)c3ccccc23)n1
501 to 2500 | Cc1cc(NS(=O)(=O)c2ccc(C(C)(C)C)cc2)n(-c2cncc3ccccc23)n1
501 to 2500 | CCC(C)(C)c1ccc(S(=O)(=O)Nc2cc(C)nn2-c2cccc3ncccc23)cc1
501 to 2500 | Cc1cc(NS(=O)(=O)c2ccc(C(C)(C)C)cc2)n(-c2ccnc3cc(F)ccc23)n1
501 to 2500 | Cc1cc(NS(=O)(=O)c2ccc(C(C)(C)C)cc2)n(-c2cccc3c2ccc[n+]3[O-])n1

The remaining lines, values behind:

SMILES | IC50 [nM]
Cc1cc(NS(=O)(=O)c2ccc(OC(C)C)cc2)n(-c2cccc3cnccc23)n1 | 501 to 2500
Cc1cc(NS(=O)(=O)c2ccc(C(C)(C)C)cc2)n(-c2nncc3ccccc23)n1 | 501 to 2500
Cc1cc(NS(=O)(=O)c2ccc(OC(C)C)cc2)n(-c2cccc3ncccc23)n1 | 501 to 2500
Cc1cc(NS(=O)(=O)c2ccc(OC(C)C)c(F)c2)n(-c2cccc3ncccc23)n1 | 501 to 2500
CC(C)(C)c1ccc(S(=O)(=O)Nc2cc(CF)nn2-c2cccc3ncccc23)cc1F | < 500
CC(C)Oc1ccc(S(=O)(=O)Nc2cc(CF)nn2-c2cccc3ncccc23)cc1 | 501 to 2500
Cc1cc(NS(=O)(=O)c2cc(F)c(C(C)(C)C)c(F)c2)n(-c2cccc3ncccc23)n1 | < 500
CC(C)c1ccc(S(=O)(=O)Nc2cc(C(F)(F)F)nn2-c2cccc3ncccc23)cc1 | 501 to 2500
CC(C)(C)c1ccc(S(=O)(=O)Nc2cc(CF)nn2-c2cccc3ncccc23)cc1 | < 500
CC(C)(C)c1ccc(S(=O)(=O)Nc2ccnn2-c2cccc3ncccc23)cc1 | > 2500
Cc1cc(NS(=O)(=O)c2ccc(C(C)(C)C)c(F)c2)n(-c2cccc3ncccc23)n1 | < 500
COc1cnc(-n2nc(C)cc2NS(=O)(=O)c2ccc(C(C)(C)C)cc2)c2ccccc12 | 501 to 2500
CC(C)(C)c1ccc(S(=O)(=O)Nc2cc(C(F)F)nn2-c2cccc3ncccc23)cc1F | 501 to 2500
Cc1cc(NS(=O)(=O)c2ccc(C(C)(C)C)cc2)n(-c2ncc(Cl)c3ccccc23)n1 | > 2500
Cc1cc(NS(=O)(=O)c2ccc(OC(F)(F)F)cc2)n(-c2cccc3ncccc23)n1 | 501 to 2500
Cc1cc(NS(=O)(=O)c2ccc(C(C)(C)C)c(F)c2)n(-c2ccc(Br)c3ncccc23)n1 | < 500
Cc1cc(NS(=O)(=O)c2ccc(C(C)C)cc2)n(-c2cccc3cnccc23)n1 | 501 to 2500
CC(C)(C)c1ccc(S(=O)(=O)Nc2cc(C#N)nn2-c2cccc3ncccc23)cc1 | 501 to 2500

SMILES | IC50 [nM]
Cc1cc(NS(=O)(=O)c2ccc(C(C)(C)C)c(Cl)c2)n(-c2cccc3ncccc23)n1 | 501 to 2500
Cc1cc(NS(=O)(=O)c2ccc(C(C)(C)C)c(F)c2)n(-c2cccc3nc(N)ccc23)n1 | < 500
Cc1cc(NS(=O)(=O)c2ccc(C(C)(C)C)cc2F)n(-c2cccc3ncccc23)n1 | 501 to 2500
COCc1cc(NS(=O)(=O)c2ccc(C(C)(C)C)cc2)n(-c2cccc3ncccc23)n1 | < 500
COc1ccc(-n2nc(C)cc2NS(=O)(=O)c2ccc(C(C)(C)C)c(F)c2)c2cccnc12 | < 500
Cc1cc(NS(=O)(=O)c2ccc(OCC(C)C)cc2)n(-c2cccc3ncccc23)n1 | > 2500
Cc1cc(NS(=O)(=O)c2ccc(C(C)(C)C)c(F)c2)n(-c2ccc(C#N)c3ncccc23)n1 | < 500
CC(C)c1ccc(S(=O)(=O)Nc2cc(C(F)F)nn2-c2cccc3ncccc23)cc1 | 501 to 2500
CC(C)Oc1ccc(S(=O)(=O)Nc2cc(C(F)(F)F)nn2-c2cccc3cnccc23)cc1 | 501 to 2500
CC(C)Oc1ccc(S(=O)(=O)Nc2cc(C(F)(F)F)nn2-c2cccc3ncccc23)cc1 | > 2500
CC(C)(C)c1ccc(S(=O)(=O)Nc2cc(C(F)F)nn2-c2cccc3ncccc23)cc1 | < 500
Cc1cc(NS(=O)(=O)c2ccc(C(C)(C)C)c(F)c2)n(-c2ccc(N)c3ncccc23)n1 | 501 to 2500
Cc1cc(NS(=O)(=O)c2ccc(C(C)(C)C)cc2)n(-c2n[nH]c(=O)c3ccccc23)n1 | 501 to 2500
CC(C)(C)c1ccc(S(=O)(=O)Nc2cc(C(F)(F)F)nn2-c2cccc3ncccc23)cc1 | 501 to 2500
CC(C)c1ccc(S(=O)(=O)Nc2cc(C(F)(F)F)nn2-c2cccc3cnccc23)cc1 | 501 to 2500
Cc1cc(NS(=O)(=O)c2ccc(C(C)(C)C)cc2)n(-c2cccc3c[n+]([O-])ccc23)n1 | > 2500
Cc1cc(NS(=O)(=O)c2ccc(C(C)C)cc2)n(-c2cccc3ncccc23)n1 | 501 to 2500
CC(C)Oc1ccc(S(=O)(=O)Nc2cc(C(F)F)nn2-c2cccc3ncccc23)cc1 | < 500

— patent publication US12611404B2, “Aza-aryl 1H-pyrazol-1-yl benzene sulfonamides” (ChemoCentryx, Inc., priority 2012, dated 2026)
